From PubChem BioAssay AID504625 (Southern Research Specialized Biocontainment Screening …, 2011) come the findings set out here.

For the experiment, the system named is human PBMC, HIV-1 X4 replication, supernatant RT activity. As to the kind of experiment: inhibitors of X4-tropic HIV-1 replication in PBMC, dose response, cell-based, human PBMC, set 3 (AID 504625).

For orientation: IC50 means the concentration that inhibits the measured activity by half. `Cc1c2c(=O)n(-c3nc4ccccc4s3)nc-2cc(O)n1Cc1ccccc1`: the IC50 was 1510 nM.
